A short description of data set [1]: Cytotoxicity against human BT549 cells assessed as cell growth at 10^-4 M after 48 hrs by SRB assay. Particulars: BT-549, 48 h, read-out: Activity. Type of data set: functional. For orientation: In SRB staining, fixed cells bind dye roughly in proportion to their protein.
The next data set concerns MDA-MB-435. The data set can be described thus: Cytotoxicity against human MDA-MB-435 cells assessed as cell growth at 10^-8 M after 48 hrs by SRB assay. Type of data set: functional. The following applies: MDA-MB-435, 48 h, read-out: Activity.
Data set [2] in a line: Cytotoxicity against human DU145 cells assessed as cell growth at 10^-4 M after 48 hrs by SRB assay. Particulars: DU-145, 48 h, read-out: Activity. Type of data set: functional.
Data set [3] is described as follows: Cytotoxicity against human NCI-ADR-RES cells assessed as cell growth at 10^-8 M after 48 hrs by SRB assay. It is filed as functional. The following applies: read-out: Activity.
Data set [4] deals with MDA-MB-231. The data set is described as follows: Cytotoxicity against human MDA-MB-231 cells assessed as cell growth at 10^-5 M after 48 hrs by SRB assay. The following applies: MDA-MB-231, 48 h, read-out: Activity. It is filed as functional.
Data set [5] is described as follows: Cytotoxicity against human IGROV1 cells assessed as cell growth at 10^-7 M after 48 hrs by SRB assay. Type of data set: functional. The following applies: IGROV-1, 48 h, read-out: Activity.
The subject of data set [6] is M14. The data set can be described thus: Cytotoxicity against human M14 cells assessed as cell growth at 10^-6 M after 48 hrs by SRB assay. Type of data set: functional. The following applies: M14, 48 h, read-out: Activity.
For a further data set, the system named is K562. The data set is described as follows: Cytotoxicity against human K562 cells assessed as cell growth at 10^-4 M after 48 hrs by SRB assay. Type of data set: functional. Particulars: K562, 48 h, read-out: Activity.
Data set [7] is described as follows: Cytotoxicity against human IGROV1 cells assessed as cell growth at 10^-8 M after 48 hrs by SRB assay. Type of data set: functional. Particulars: IGROV-1, 48 h, read-out: Activity.
Data set [8] relates to M14. The data set can be described thus: Cytotoxicity against human M14 cells assessed as cell growth at 10^-4 M after 48 hrs by SRB assay. It is filed as functional. Particulars: M14, 48 h, read-out: Activity.
Data set [9] has as its system SR. The data set is described as follows: Cytotoxicity against human SR cells assessed as cell growth at 10^-8 M after 48 hrs by SRB assay. It is filed as functional. The following applies: read-out: Activity.
A short description of data set [10]: Cytotoxicity against human SF539 cells assessed as cell growth at 10^-4 M after 48 hrs by SRB assay. Particulars: SF-539, 48 h, read-out: Activity. It is filed as functional.
Data set [11] in a line: Cytotoxicity against human OVCAR8 cells assessed as cell growth at 10^-7 M after 48 hrs by SRB assay. Type of data set: functional. The following applies: OVCAR-8, 48 h, read-out: Activity.
A short description of data set [12]: Cytotoxicity against human UACC62 cells assessed as cell growth at 10^-6 M after 48 hrs by SRB assay. Particulars: UACC-62, 48 h, read-out: Activity. Type of data set: functional.
Data set [13] is described as follows: Cytotoxicity against human HL-60(TB) cells assessed as cell growth at 10^-7 M after 48 hrs by SRB assay. It is filed as functional. The following applies: HL-60, 48 h, read-out: Activity.
Another data set has as its system SK-MEL-28. The data set is described as follows: Cytotoxicity against human SK-MEL-28 cells assessed as cell growth at 10^-4 M after 48 hrs by SRB assay. Type of data set: functional. Particulars: SK-MEL-28, 48 h, read-out: Activity.
A further data set relates to HT-29. The data set is described as follows: Cytotoxicity against human HT-29 cells assessed as cell growth at 10^-7 M after 48 hrs by SRB assay. It is filed as functional. Particulars: HT-29, 48 h, read-out: Activity.
Data set [14] in a line: Cytotoxicity against human SW620 cells assessed as cell growth at 10^-5 M after 48 hrs by SRB assay. Type of data set: functional. Particulars: SW-620, 48 h, read-out: Activity.
The nature of data set [15]: Cytotoxicity against human PC3 cells assessed as cell growth at 5 uM after 48 hrs by SRB assay. Type of data set: functional. The following applies: PC-3, 48 h, read-out: Activity.
Data set [16] is described as follows: Cytotoxicity against human DU145 cells assessed as cell growth at 0.5 uM after 48 hrs by SRB assay. It is filed as functional. Particulars: DU-145, 48 h, read-out: Activity.
The next data set deals with NCI-H226. The data set is described as follows: Cytotoxicity against human NCI-H226 cells assessed as cell growth at 50 uM after 48 hrs by SRB assay. Type of data set: functional. The following applies: NCI-H226, 48 h, read-out: Activity.
Data set [17] is described as follows: Cytotoxicity against human SNB19 cells assessed as cell growth at 50 uM after 48 hrs by SRB assay. The following applies: SNB-19, 48 h, read-out: Activity. It is filed as functional.
A short description of data set [18]: Cytotoxicity against human BT549 cells assessed as cell growth at 5 nM after 48 hrs by SRB assay. It is filed as functional. Particulars: BT-549, 48 h, read-out: Activity.
For another data set, the system named is A549. The data set is described as follows: Cytotoxicity against human A549 cells assessed as cell growth at 5 uM after 48 hrs by SRB assay. Type of data set: functional. The following applies: A549, 48 h, read-out: Activity.
Data set [19] has as its system SR. The data set is described as follows: Cytotoxicity against human SR cells assessed as cell growth at 50 uM after 48 hrs by SRB assay. Particulars: read-out: Activity. Type of data set: functional.
Data set [20] in a line: Cytotoxicity against human SKOV3 cells assessed as cell growth at 50 uM after 48 hrs by SRB assay. It is filed as functional. Particulars: SK-OV-3, 48 h, read-out: Activity.
Data set [21] is described as follows: Cytotoxicity against human HCC2998 cells assessed as cell growth at 50 uM after 48 hrs by SRB assay. Type of data set: functional. The following applies: HCC 2998, 48 h, read-out: Activity.
The nature of data set [22]: Cytotoxicity against human HCT116 cells assessed as cell growth at 50 uM after 48 hrs by SRB assay. Particulars: HCT-116, 48 h, read-out: Activity. Type of data set: functional.
A short description of data set [23]: Cytotoxicity against human SW620 cells assessed as cell growth at 0.5 uM after 48 hrs by SRB assay. The following applies: SW-620, 48 h, read-out: Activity. Type of data set: functional.
The test system of another data set is NCI-H322M. The data set is described as follows: Cytotoxicity against human NCI-H322M cells assessed as cell growth at 5 nM after 48 hrs by SRB assay. The following applies: read-out: Activity. It is filed as functional.
Data set [24] is described as follows: Metabolic stability in human liver microsomes assessed as remaining parent compound level at 10 uM after 3 hrs in absence of NAPDH by LC/MS analysis. Type of data set: ADME. Particulars: read-out: Drug metabolism. For orientation: Microsomes from liver hold many membrane-bound enzymes, among them those of drug oxidation.
A further data set concerns SK-MEL-5. The data set can be described thus: Cytotoxicity against human SK-MEL-5 cells assessed as cell growth at 0.5 uM after 48 hrs by SRB assay. Type of data set: functional. The following applies: SK-MEL-5, 48 h, read-out: Activity.
The nature of data set [25]: Cytotoxicity against human Hs 578T cells assessed as cell growth at 0.5 uM after 48 hrs by SRB assay. Type of data set: functional. Particulars: read-out: Activity.
Data set [26] is described as follows: Cytotoxicity against human HOP92 cells assessed as cell growth at 0.5 uM after 48 hrs by SRB assay. Type of data set: functional. The following applies: HOP-92, 48 h, read-out: Activity.
Data set [27] is described as follows: Cytotoxicity against human DU145 cells assessed as cell growth at 50 nM after 48 hrs by SRB assay. Type of data set: functional. Particulars: DU-145, 48 h, read-out: Activity.
The nature of data set [28]: Cytotoxicity against human RPMI8226 cells assessed as cell growth at 50 uM after 48 hrs by SRB assay. The following applies: RPMI-8226, 48 h, read-out: Activity. It is filed as functional.
The test system of the next data set is A498. The data set can be described thus: Cytotoxicity against human A498 cells assessed as cell growth at 50 uM after 48 hrs by SRB assay. It is filed as functional. Particulars: A498, 48 h, read-out: Activity.
The test system of the next data set is T47D. The data set is described as follows: Cytotoxicity against human T47D cells assessed as cell growth at 0.5 uM after 48 hrs by SRB assay. Type of data set: functional. Particulars: read-out: Activity.
In another data set the test system is NCI-H460. The data set can be described thus: Cytotoxicity against human NCI-H460 cells assessed as cell growth at 5 uM after 48 hrs by SRB assay. It is filed as functional. The following applies: NCI-H460, 48 h, read-out: Activity.
Data set [29] is described as follows: Cytotoxicity against human HOP92 cells assessed as cell growth at 5 uM after 48 hrs by SRB assay. Type of data set: functional. The following applies: HOP-92, 48 h, read-out: Activity.
Data set [30] relates to MDA-MB-231. The data set is described as follows: Cytotoxicity against human MDA-MB-231 cells assessed as cell growth at 0.5 uM after 48 hrs by SRB assay. Type of data set: functional. Particulars: MDA-MB-231, 48 h, read-out: Activity.

`C/C(=C(/c1ccc(O)cc1)c1ccc(OCCN2CCCC2)cc1)c1ccccc1`: the growth at 100 µM in data set [1] is -100%; in [2], -100%; in the data set with K562 it was -70%; with M14 [8], -96%; in data set [10], -86%; with SK-MEL-28 it was -93%. Besides, the growth at 0.01 µM was 93% in the data set on MDA-MB-435, 99% in [3], 106% in [7] and 96% in the data set with SR [9]. Moreover, the growth at 10 µM in the data set on MDA-MB-231 [4] is -10%; in [14], -40%. Besides, the growth at 0.1 µM in data set [5] was found to be 101%; in data set [11] it was 105%; in data set [13] it was 99%; in the data set on HT-29, 97%. The growth at 1 µM with M14 [6] worked out at 91%; in [12], 106%.

On to `CCCCCCCCCC(=O)Oc1ccc(/C(=C(/C)c2ccccc2)c2ccc(OCCN3CCCC3)cc2)cc1`, for which the growth at 5 µM stood at 89% in data set [15], 99% with A549, 92% with NCI-H460 and 72% in data set [29]. Moreover, the growth at 0.5 µM was found to be 81% in data set [16]; 88% in [23]; 62% in the data set with SK-MEL-5; 75% in data set [25]; 64% in data set [26]; 46% in the data set on T47D. In addition, the growth at 0.5 µM in the data set with MDA-MB-231 [30] was determined as 96%. Also, the growth at 50 µM is -74% with NCI-H226; -77% in [17]; -66% in the data set with SR [19]; -88% in [20]; -77% in data set [21]; -87% in data set [22]. Besides, the growth at 50 µM is -52% in data set [28] and -84% in the data set with A498. The growth at 0.005 µM in data set [18] came out at 100%; in the data set on NCI-H322M, 94%. Further, the remaining at 3 h, 10 µM in [24] was found to be 54%. The growth at 0.05 µM in [27] was 98%.

The values above are taken from ChEMBL document CHEMBL3774317, “Design and synthesis of novel tamoxifen analogues that avoid CYP2D6 metabolism” (Eur J Med Chem, 2016).
